Assay results as given in patent publication US11998595B2, “Telomerase polypeptide vaccine for treating cancer” (Ultimovacs AS, priority 2010, dated 2024).
Entries after “also recorded” stand apart in the source; their conditions may differ.

Tested on: stage IV melanoma patients
Test: Clinical course of vaccinated melanoma patients
Assay type: in vivo, human
Set-up: key to Clinical response: PD = Progressive disease; SD = Stable disease; PR = Partial response; CR = Complete response
Experimental: A comparison of the patients studied in Example 4 was carried out. In brief, seven patients were identified as clinical responders following a cancer diagnosis and vaccination with an hTERT vaccine. These patients were identified based on a combination of prolonged survival and clinical response. The clinical response could either be stable disease (SD), partial response (PR) or complete response (CR). The vaccinated melanoma patients were diagnosed with stage IV at the time of inclusion in the clinical trial, but had no brain metastases. Lung cancer patient P5 was diagnosed with stage IV, inoperable lung cancer and colon cancer patient P1 with late stage inoperable colon cancer. Lung cancer patient P6 was a stage IV lung cancer patient with a 12-week life expectancy. Pancreas cancer patient P1 had relapsed, inoperable pancreas cancer and a life expectancy of 8-10 months. Four of the patients (designated Melanoma P7-P8, Lung cancer P5 and Colon cancer P1) had each been vaccinated with the peptide GV1001 (SEQ ID NO. 10). The fifth patient (designated Lung cancer P6) and the sixth patient (designated Pancreas cancer 1) had been vaccinated with dendritic cells transfected with mRNA encoding hTERT. The seventh patient, Melanoma patient P9, had not been vaccinated at the time of the study and instead developed a spontaneous response following development of the cancer. (An eighth and final patient was also identified as a clinical responder but samples from this patient were not available for study.)
Six patients who were clinical non-responders following a melanoma cancer diagnosis and a GV1001 peptide (SEQ ID NO. 10) vaccination were studied. These patients were all stage IV melanoma patients and included in the same GV1001 vaccination trial as melanoma patients P7 and P8 who were long term survivors (see Example 6). […] Five of the patients also experienced progressive disease and one patient, designated Melanoma P3, experienced some stabilization of the disease but still had short survival. The proliferative T-cell responses of each patient to a series of peptides were determined in the same manner as in Example 1, at one time point. The peak response of each patient during the study period to peptide GV1001 is also shown which confirms that each patient responded immunologically to GV1001 vaccination.
The patients were classed as either clinical responders or clinical non-responders based on their clinical response which included stable disease (SD), tumour regression (PR or CR) and unexpectedly long survival time. Both clinical responders and clinical non-responders were selected from the same or similar vaccination trials.

EARPALLTSRLRFIPK (listed as Homo sapiens) [GV1001]
Clinical Responder (patient Melanoma P1): No | Clinical response (patient Melanoma P1): PD | Survival (Months) (patient Melanoma P1): 10 Months | Vaccine-specific T cell response at time-point tested (patient Melanoma P1): Yes | Clinical Responder (patient Melanoma P2): No | Clinical response (patient Melanoma P2): PD | Survival (Months) (patient Melanoma P2): 9 Months | Vaccine-specific T cell response at time-point tested (patient Melanoma P2): Yes | Clinical Responder (patient Melanoma P3): No | Clinical response (patient Melanoma P3): SD | Survival (Months) (patient Melanoma P3): 10 Months | Vaccine-specific T cell response at time-point tested (patient Melanoma P3): Yes | Clinical Responder (patient Melanoma P4): No | Clinical response (patient Melanoma P4): PD | Survival (Months) (patient Melanoma P4): 8 Months | Vaccine-specific T cell response at time-point tested (patient Melanoma P4): Yes | Clinical Responder (patient Melanoma P5): No | Clinical response (patient Melanoma P5): PD | Survival (Months) (patient Melanoma P5): 12 Months | Vaccine-specific T cell response at time-point tested (patient Melanoma P5): Yes | Clinical Responder (patient Melanoma P6): No | Clinical response (patient Melanoma P6): PD | Survival (Months) (patient Melanoma P6): 8 Months | Vaccine-specific T cell response at time-point tested (patient Melanoma P6): Yes | Clinical Responder (patient Melanoma P7): Yes | Clinical response (patient Melanoma P7): alive, PR | Vaccine-specific T cell response at time-point tested (patient Melanoma P7): Yes | Survival (Months) (patient Melanoma P7, + signifies that the patient is still alive): 65+ Months | Clinical Responder (patient Melanoma P8): Yes | Survival (Months) (patient Melanoma P8): 21 Months | Vaccine-specific T cell response at time-point tested (patient Melanoma P8): Yes | Clinical response (patient Melanoma P8, TTP = time to progression): increased; also recorded: TTP, PR
